Results: patent US20060172996A1, “Method of preventing relapse in the abstinent substance dependent individual” (priority 2005, published 2006)

Tested on: otherwise abstinent person
Experiment: Human use of Flumazenil during a period of urges for a substance of abuse
Format: in vivo
Details: placed into the blood stream as quickly as possible during a period of urges
Description: While an IV might accomplish the above noted task, it is not realistic for a person, after having undergone detoxification, to have repeated IV therapies daily, to prevent a relapse so as not become substance abuse dependent again. Such a person would have to go to a treatment location where an IV can be administered.

CCOC(=O)c1ncn2c1CN(C)C(=O)c1cc(F)ccc1-2 [Flumazenil]
Urge for a substance of abuse such as alcohol: the urge will disappear
